Literature values, collected in patent US20230071314A1, “POLYMERIC COMPOSITIONS FOR SUSTAINED DELIVERY OF VMAT2 INHIBITORS” (Foresee Pharmaceuticals Co., Ltd., priority 2021, published 2023).
Where two headings read alike, the source gives them in different places.

Experiments:
dopamine D2 = dopamine D2 (Homo sapiens, UniProt P14416); details: Harriott et al. 2018; read-out: off-target binding affinity to dopamine D2
[1] = molecular target: serotonin 5-HT7 receptors (Homo sapiens, UniProt P34969); details: Harriott et al. 2018; read-out: off-target binding affinity to serotonin 5-HT7 receptors
Chain of serotonin 5-HT7 receptors (P34969 whole entry): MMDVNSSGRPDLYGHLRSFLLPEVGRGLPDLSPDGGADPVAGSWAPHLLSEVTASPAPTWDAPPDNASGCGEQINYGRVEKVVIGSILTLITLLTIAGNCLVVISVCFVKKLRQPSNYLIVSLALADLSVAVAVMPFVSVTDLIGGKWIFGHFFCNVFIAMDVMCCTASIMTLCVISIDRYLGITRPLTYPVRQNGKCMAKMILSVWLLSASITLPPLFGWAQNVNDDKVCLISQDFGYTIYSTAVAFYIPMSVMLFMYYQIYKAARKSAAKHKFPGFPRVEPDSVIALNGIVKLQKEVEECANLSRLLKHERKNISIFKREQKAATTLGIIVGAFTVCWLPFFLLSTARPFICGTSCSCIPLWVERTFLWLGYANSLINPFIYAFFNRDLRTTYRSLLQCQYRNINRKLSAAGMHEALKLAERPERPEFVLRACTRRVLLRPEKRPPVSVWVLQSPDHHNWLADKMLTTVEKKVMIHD

Chain of dopamine D2 (P14416 1-414 isoform P14416-2): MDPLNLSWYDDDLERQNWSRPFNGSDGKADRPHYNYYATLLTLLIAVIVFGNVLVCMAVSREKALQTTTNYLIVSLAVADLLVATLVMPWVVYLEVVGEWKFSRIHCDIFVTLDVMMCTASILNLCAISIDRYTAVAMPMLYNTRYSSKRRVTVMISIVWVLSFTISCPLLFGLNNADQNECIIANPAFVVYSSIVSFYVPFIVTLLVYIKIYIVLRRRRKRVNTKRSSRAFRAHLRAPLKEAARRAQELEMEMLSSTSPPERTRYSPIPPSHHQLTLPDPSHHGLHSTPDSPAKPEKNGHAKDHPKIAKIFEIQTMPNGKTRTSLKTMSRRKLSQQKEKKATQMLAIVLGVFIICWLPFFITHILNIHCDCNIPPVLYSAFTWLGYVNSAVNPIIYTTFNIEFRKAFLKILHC

Ki (dopamine D2)	Ki [1]	Compound	increase of cumulative release (Ivermectin loading increased from 1% to 2%)	increase of cumulative release (Ivermectin loading increased from 1% to 4%)
180 nM	71 nM	COc1cc2c(cc1OC)C1CC(O)C(CC(C)C)CN1CC2 [S,S,S-DHTBZ ((−)-α), [−]-α-dihydrotetrabenazine]		
53 nM	5.9 nM	COc1cc2c(cc1OC)C1CC(O)C(CC(C)C)CN1CC2 [R,S,S-DHTBZ ((−)-β), [−]-β-dihydrotetrabenazine]		
		Ivermectin	2.4-2.9 times	3.1-3.7 times
